Assay results published in patent US10385108B2, “Peptide analogs of alpha-melanocyte stimulating hormone” (Genzyme Corporation, priority 2008, dated 2019).
Read-outs that look alike come from different tables or passages of the source. Where a SMILES comes first, the peptide text is derived from it. [ ]: non-standard residue; d: D form. dCha = N[C@H](CC1CCCCC1)C(=O)O

Tests used:
MC1R [1] = target: T1, MC1R (Homo sapiens, UniProt Q01726); assay: Competitive binding with 125I-NDP-MSH, HEK293 membrane preparations, MC1R; conditions: for Ki: Ki MC1R, competition with 125I-NDP-MSH;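 for all read-outs here: Read-out: receptor-bound radioligand retained by filtration and counted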
T1 sequence (Q01726 whole entry): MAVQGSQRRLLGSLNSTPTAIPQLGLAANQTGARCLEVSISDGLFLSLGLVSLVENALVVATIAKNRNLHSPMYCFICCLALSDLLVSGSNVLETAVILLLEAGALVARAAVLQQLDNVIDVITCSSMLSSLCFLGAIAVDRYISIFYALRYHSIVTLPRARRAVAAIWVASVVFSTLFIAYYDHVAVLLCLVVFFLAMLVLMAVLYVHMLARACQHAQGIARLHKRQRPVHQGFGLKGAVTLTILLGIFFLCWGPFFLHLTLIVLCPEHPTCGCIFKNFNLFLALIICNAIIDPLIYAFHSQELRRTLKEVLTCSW
Experimental: (§1) Binding analysis was done by Cerep laboratories (Paris, France) with coded samples.
(§2) The mixtures were filtered through 96-well GFC filters (Millipore, Billerica, Mass.), washed 3 times with binding buffer without BSA, dried and counted.
(§3) A competitive binding assay using a MCR panel including MCR 1, 3, 4, and 5 was performed.

MC5R = MC5R (Homo sapiens, UniProt P33032); assay: Competitive binding with 125I-NDP-MSH, HEK293 membrane preparations, MC5R; conditions: Ki MC5R, competition with 125I-NDP-MSH; cells noted in μM
Sequence of MC5R (P33032 whole entry): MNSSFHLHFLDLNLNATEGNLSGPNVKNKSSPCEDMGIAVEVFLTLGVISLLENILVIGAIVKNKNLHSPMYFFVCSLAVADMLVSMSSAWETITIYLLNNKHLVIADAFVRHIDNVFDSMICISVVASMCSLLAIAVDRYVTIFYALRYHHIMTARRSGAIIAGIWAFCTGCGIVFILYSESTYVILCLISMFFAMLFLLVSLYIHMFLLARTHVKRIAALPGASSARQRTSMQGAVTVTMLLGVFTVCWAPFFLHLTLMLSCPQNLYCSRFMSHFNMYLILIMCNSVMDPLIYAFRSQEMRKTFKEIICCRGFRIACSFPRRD
Experimental: as §1, §2, §3

MC3R = MC3R (Homo sapiens, UniProt P41968); assay: Competitive binding with 125I-NDP-MSH, HEK293 membrane preparations, MC3R
Sequence of MC3R (P41968 whole entry): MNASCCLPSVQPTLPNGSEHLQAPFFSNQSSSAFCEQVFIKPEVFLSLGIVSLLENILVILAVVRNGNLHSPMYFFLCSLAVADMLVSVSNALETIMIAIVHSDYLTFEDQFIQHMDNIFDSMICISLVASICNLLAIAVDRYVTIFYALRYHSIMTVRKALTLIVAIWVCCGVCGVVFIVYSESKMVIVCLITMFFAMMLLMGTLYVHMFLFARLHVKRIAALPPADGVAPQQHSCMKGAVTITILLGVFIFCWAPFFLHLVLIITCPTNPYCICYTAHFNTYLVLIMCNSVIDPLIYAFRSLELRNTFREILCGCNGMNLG
Experimental: as §1, §2, §3

[2] = tested on: B16-F1 murine melanoma cells; assay: Intracellular cAMP in B16-F1 melanoma cells; format: cell-based; conditions: for EC50: B16-F1 cells, 10^-4-10^-11 M, 30 min, IBMX
Experimental: B16-F1 (melanoma cell line) cells from American Type Culture Collection (Manassas, Va.) were seeded into flat bottom 96 well plates at 5×10^4/well and cultured overnight in DMEM (Cambrex, Walkersville, Md.) supplemented with 2 mM glutamine, antibiotics (100 U/ml penicillin and 100 […]) and 10% heat-inactivated fetal bovine serum (Invitrogen, Grand Island, N.Y.). […] Cells were lysed and intracellular cAMP levels were measured by an enzyme immunoassay kit (Amersham Biosciences, Piscataway, N.J.). Forskolin (Sigma, St. Louis, Mo.) at 100 μM served as positive controls.
cAMP levels in B16-F1 melanoma cells after treatment with native α-MSH, RI α-MSH, or a scrambled control peptide were examined. The […] melanoma cell line expresses a high number of MCR1 receptors (3000-4000 receptors/cell) compared with macrophages cell lines which express only 100-200 receptors/cell. Therefore we selected to examine the effect of the RI α-MSH treatment on the melanoma cell line. Murine melanoma B16-F1 cells were treated with native α-MSH, RI α-MSH, or control scrambled peptide at concentrations 1 pg/ml-1 μg/ml. After 30 min, cells were lysed and intracellular cAMP was measured by an enzyme immunoassay. […] However, a higher concentration of RI α-MSH (100 ng/ml) was necessary to increase cAMP compared with native α-MSH which increased cAMP at a 10 pg/ml concentration. This difference in concentration of peptide necessary to increase cAMP levels may be the result of the binding affinity to the MCR1 receptor.
Murine melanoma B16-F1 cells were treated with native α-MSH, RI α-MSH, scrambled peptide control, KPV, or alanine substituted peptides of RI α-MSH at 1 μg/ml (FIG. 7B). […] Peptides designated 810, 811, and 812 have alanine substitutions in the central core tetrapeptide sequence (D-Trp D-Arg D-Phe D-His region; AA 5-8) (variant disclosed in SEQ ID NO:2) proposed to be involved in native α-MSH binding to the melanocortin receptor and its biological activity. […] The residues in the core tetrapeptide (wrfh) (variant disclosed in SEQ ID NO:2) and to a lesser extent, the methionine 4 of RI-MSH are critical for binding to MC1R.
B16-F1 murine melanoma cells were cultured into 96 well plates 5×10^4 cells/well overnight in media with L-glutamine and pen/strep and FBS. Media was removed and new media with IBMX was added to the cells for 1 hr. Cells were then treated with RI α-MSH, or RI α-MSH peptide analogs (890, 891, 892, 893, 894 or 895). Cells were lysed after 30 min using a cAMP assay kit and supernatant were used in the assay. Forskolin at 10 μM served as positive controls.
Intracellular cAMP was measured using a cAMP competition Assay Kit (Amersham Biosciences). All cell lysate samples were diluted 1:100 for analysis.
Murine melanoma B16-F1 cells were treated with RI α-MSH, or RI α-MSH analogs (869, 872, 880, 878, 886 and 890-895) at a concentration range of 10^−4-10^−11 M. cAMP levels from cells treated with RI α-MSH, or RI α-MSH analogs. […] See FIG. 22 for graphical data and Table 2 for EC50 data.

MC4R = MC4R (Homo sapiens, UniProt P32245); assay: Competitive binding with 125I-NDP-MSH, HEK293 membrane preparations, MC4R
Sequence of MC4R (P32245 whole entry): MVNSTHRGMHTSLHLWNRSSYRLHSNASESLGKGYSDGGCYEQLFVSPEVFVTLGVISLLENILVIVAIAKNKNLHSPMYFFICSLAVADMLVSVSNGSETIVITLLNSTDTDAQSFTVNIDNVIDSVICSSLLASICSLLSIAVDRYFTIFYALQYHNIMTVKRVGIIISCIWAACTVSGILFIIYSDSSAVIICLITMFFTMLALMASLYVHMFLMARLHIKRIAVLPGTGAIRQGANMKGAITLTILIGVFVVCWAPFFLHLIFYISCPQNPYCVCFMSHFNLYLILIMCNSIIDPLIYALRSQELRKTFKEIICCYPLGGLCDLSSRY
Experimental: as §1, §2, §3

C57BL/6 mice = assay: LPS inflammation mouse model, serum cytokines; format: in vivo; conditions: i.p. 30 min after LPS, serum at 2 h
Experimental: Male C57BL/6 mice were challenged with LPS (1 ug/mouse), i.p. After 30 min mice were treated with dexamethasone (2 mg/kg; Sigma), RI-α-MSH analog 891, or RI-α-MSH. At 2 hrs after LPS challenge, mice were bled for serum. Cytokine analysis was measured by flow cytometry with a cytometric bead array kit (BD Biosciences).
C57BL/6 mice were injected with LPS, i.p. and 30 minutes later native α-MSH or RI α-MSH analog 891 was administered i.p. at doses ranging from 5 mg/kg to 0.156 mg/kg. RI α-MSH analog 891 is an analog of RI α-MSH in which d-Cha and hsiiss D-amino acids were added to the core peptide sequence. […] MCP-1 was not affected by native α-MSH treatment (FIG. 16B).

mouse MC1R = mouse MC1R (Mus musculus, UniProt Q01727); assay: Binding affinity to mouse MC1R (data not shown)
Sequence of mouse MC1R (Q01727 whole entry): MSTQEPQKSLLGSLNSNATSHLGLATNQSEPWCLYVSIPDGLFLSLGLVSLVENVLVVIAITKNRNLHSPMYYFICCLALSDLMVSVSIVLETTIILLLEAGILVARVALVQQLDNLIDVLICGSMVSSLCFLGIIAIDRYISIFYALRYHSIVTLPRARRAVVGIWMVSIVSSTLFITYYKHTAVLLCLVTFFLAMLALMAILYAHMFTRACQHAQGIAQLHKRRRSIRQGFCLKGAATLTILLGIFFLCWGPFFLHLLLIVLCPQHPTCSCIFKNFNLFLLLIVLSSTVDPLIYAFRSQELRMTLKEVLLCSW

MC1R [3] = target: T1, MC1R; set-up: purchased Perkin Elmer, Boston Mass; host or cells: HEK293 transfected cell lines (membrane preparations); conditions: value quoted, not from Table 1; read-out: Ki MC1R (reported); cited from earlier work
[4] = peptides 5 to 0.156 mg/kg, dexamethasone 2 mg/kg

| Ki (MC1R [1]) [µM] | Ki (MC5R) [µM] | Ki (MC3R) [µM] | EC50 [2] [µM] | Ki (MC4R) [µM] | affinity for MC1R compared with parent peptide (in words) (MC1R [1]) | binding affinity to mouse MC1R (in words) (mouse MC1R) | Structure (SMILES) | serum IL-10 vs vehicle (in words) (C57BL/6 mice; 5 to 0.156 mg/kg) | serum MCP-1 vs vehicle (in words) (C57BL/6 mice; [4]) | serum TNF-α vs vehicle (in words) (C57BL/6 mice; [4]) | potency to stimulate cAMP (in words) ([2]; data not shown) | Ki (MC1R [3]) [pM] |
| --- | --- | --- | --- | --- | --- | --- | --- | --- | --- | --- | --- | --- |
| 0.0022 | ~25 | > 30 | 0.014 | > 10 |  |  | CSCC[C@@H](NC(=O)[C@@H](CCC(=O)O)NC(=O)[C@@H](Cc1c[nH]cn1)NC(=O)[C@@H](CC1CCCCC1)NC(=O)[C@@H](CCCNC(=N)N)NC(=O)[C@@H](Cc1c[nH]c2ccccc12)NC(=O)CNC(=O)[C@@H](CCCCN)NC(=O)[C@H]1CCCN1C(=O)[C@H](NC(C)=O)C(C)C)C(=O)N[C@H](CO)C(=O)N[C@H](Cc1ccc(O)cc1)C(=O)N[C@H](CO)C(N)=O [compound 869, vpkGwr(D-Cha)hemsys] |  |  |  |  |  |
| 0.001 | ~20 | ~19 | 0.002 | ~10 |  |  | CC[C@@H](C)[C@@H](NC(=O)[C@@H](CO)NC(=O)[C@@H](Cc1c[nH]cn1)NC(=O)[C@@H](Cc1ccccc1)NC(=O)[C@@H](CCCNC(=N)N)NC(=O)[C@@H](Cc1c[nH]c2ccccc12)NC(=O)CNC(=O)[C@@H](CCCCN)NC(=O)[C@H]1CCCN1C(=O)[C@H](NC(C)=O)C(C)C)C(=O)N[C@@H](C(=O)N[C@H](CO)C(=O)N[C@H](CO)C(N)=O)[C@H](C)CC [compound 886, vpkgwrfhsiiss] (Ac-[dV][dP][dK]G[dW][dR][dF][dH][dS][dI][dI][dS][dS]-NH2) |  |  |  |  |  |
| 0.0018 ± 0.0035 | > 30 | ~18 | 0.023 | ~10 |  |  | CC[C@@H](C)[C@@H](NC(=O)[C@@H](CO)NC(=O)[C@@H](Cc1c[nH]cn1)NC(=O)[C@H](Cc1ccccc1)NC(=O)[C@@H](CCCNC(=N)N)NC(=O)[C@@H](Cc1c[nH]c2ccccc12)NC(=O)CNC(=O)[C@@H](CCCCN)NC(=O)[C@H]1CCCN1C(=O)[C@H](NC(C)=O)C(C)C)C(=O)N[C@@H](C(=O)N[C@H](CO)C(=O)N[C@H](CO)C(N)=O)[C@H](C)CC [compound 880, vpkGwrFhsiiss] (Ac-[dV][dP][dK]G[dW][dR]F[dH][dS][dI][dI][dS][dS]-NH2) |  |  |  |  |  |
| 0.00043 ± 1e-05 | ~2.5 | ~8 | 0.081 | ~3.2 | indistinguishable from MSH | increased binding affinity | CC[C@@H](C)[C@@H](NC(=O)[C@@H](CO)NC(=O)[C@@H](Cc1c[nH]cn1)NC(=O)[C@@H](CC1CCCCC1)NC(=O)[C@@H](CCCNC(=N)N)NC(=O)[C@@H](Cc1c[nH]c2ccccc12)NC(=O)CNC(=O)[C@@H](CCCCN)NC(=O)[C@H]1CCCN1C(=O)[C@H](NC(C)=O)C(C)C)C(=O)N[C@@H](C(=O)N[C@H](CO)C(=O)N[C@H](CO)C(N)=O)[C@H](C)CC [compound 891, vpkGwr(D-Cha)hsiiss] (Ac-[dV][dP][dK]G[dW][dR][dCha][dH][dS][dI][dI][dS][dS]-NH2) | significant decrease | no affect | significant decrease | increased potency to stimulate cAMP |  |
|  |  |  |  |  |  |  | NC(=O)[C@H](Cc1c[nH]c2ccccc12)NC(=O)[C@H](CCCN=C(N)N)NC(=O)[C@@H](Cc1ccccc1)NC(=O)[C@H](Cc1cnc[nH]1)NC(=O)CCCc1ccccc1 [compound 819, (Ph(CH2)3CO) HfRW] |  |  |  |  | 6 |
| 0.0023 | ~30 | ~40 |  | > 30 |  |  | CCCCSCC[C@@H](NC(=O)[C@@H](CCC(=O)O)NC(=O)[C@@H](Cc1c[nH]cn1)NC(=O)[C@@H](Cc1ccccc1)NC(=O)[C@@H](CCCNC(=N)N)NC(=O)[C@@H](Cc1c[nH]c2ccccc12)NC(=O)CNC(=O)[C@@H](CCCCN)NC(=O)[C@H]1CCCN1C(=O)[C@H](NC(C)=O)C(C)C)C(=O)N[C@H](CO)C(=O)N[C@H](Cc1ccc(O)cc1)C(=O)N[C@H](CO)C(N)=O [compound 878, vpkGwrfhe(D-buthionine)sys] |  |  |  |  |  |
